According to article PMC11851430, “Workflow for E3 Ligase Ligand Validation for PROTAC Development” (ACS Chemical Biology, 2025):
Blank lines part the entries; values can stand above or below the molecule they belong to.

Assays:
[1] = molecular target: T1, AURKA (Homo sapiens, UniProt O14965); assay: NanoBRET target engagement assay, intact and permeabilized cells; conditions: mean of duplicates, ^a values estimated by extrapolation
T1 sequence (O14965 1-403): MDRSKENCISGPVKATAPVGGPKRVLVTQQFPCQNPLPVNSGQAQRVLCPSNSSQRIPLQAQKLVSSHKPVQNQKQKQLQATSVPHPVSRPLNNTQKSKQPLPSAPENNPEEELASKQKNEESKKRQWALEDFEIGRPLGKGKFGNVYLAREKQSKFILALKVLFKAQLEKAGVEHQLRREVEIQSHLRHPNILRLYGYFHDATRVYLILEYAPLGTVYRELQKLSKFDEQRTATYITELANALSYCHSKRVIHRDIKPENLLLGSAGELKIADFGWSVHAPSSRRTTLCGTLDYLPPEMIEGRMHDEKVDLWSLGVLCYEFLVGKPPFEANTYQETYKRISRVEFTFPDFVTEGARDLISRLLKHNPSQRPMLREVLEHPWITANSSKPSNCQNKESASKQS
Procedure: Compounds were pipetted at various concentrations using an Echo acoustic dispenser (Labcyte), immediately followed by Tracer K10 (Promega, Tracer DB ID: T000008) for AAK1 and Aurora A and VHL Tracer (Promega, Tracer DB ID: T000019) for VHL, at an optimum KD concentration chosen from TracerDB ( tracerdb.org), respectively.
To measure the BRET signal, the NanoBRET® NanoGlo Substrate (Promega:
N1573) was added as per the manufacturer’s protocol, and filtered luminescence was measured on a PHERAstar plate reader (BMG Labtech) equipped with a luminescence filter pair (450 nm BP filter (donor) and 610 nm LP filter (acceptor)). For NanoBRET® measurement in permeabilized cells, 25 nL of digitonin (0.05 μg/μL) was pipetted into each well using an
After incubation, the BRET signals were measured by a PHERAstar plate reader (BMG Labtech) following the same procedure as intact NanoBRET® measurement. Competitive displacement data were then normalized to controls and were plotted using GraphPad Prism 9 software employing a normalized 3-parameter curve fit with the following equation:

[2] = tested on: kinase protein levels in Jurkat cells; assay: TMT-labeled quantitative proteomics; format: cell-based, human; conditions: for kinase degradation / AURKA degradation in proteomic experiments: Jurkat cells, 1 μM, 6 h; for AURKA degradation in proteomic experiments: cutoff log2(fold change) ≥ 0.60; for log2FC (compound/DMSO): Jurkat
Procedure: cultured in RPMI (Thermo: 11875093) supplemented as mentioned above. Cells were seeded in 6 well plates (Greiner: 657160) at a cell density of 1·10 6 cells/well and left at 37 °C and 5% […]
50 µl of SDS Lysis Buffer (2% SDS, 50 mM TRIS pH 8.5, 10 mM TCEP, 40 mM CAA) was added to each sample. Cells were transferred into low binding reaction tubes (Eppendorf:
0030108116) and samples were boiled for 15 minutes at 95 °C and sonicated for 2 minutes.
Methanol/Chloroform Precipitation. 200 µl of methanol and 50 µl of chloroform were added to each sample reaction tube and mixed via vortex. 150 µl of milliQ-H2O were added and samples were vortexed further. Samples were centrifuged for 5 minutes at 15000 g and the aqueous layer above the interphase was removed. 150 µl of methanol was added, samples were vortexed and centrifuged for 10 minutes at 15000 g to precipitate the pellet. The aforementioned wash procedure was repeated twice before transferring the pellet to a new low bind reaction tube in which it was allowed to dry for 5 minutes.
Dissolving the Protein Pellet and Protein Quantification. 50 µl of digestion buffer (8 M Urea, 50 mM TRIS pH 8) was added to each sample before vortexing and shaking at 750 rpm at room temperature for 10 minutes to solubilize the pellet. Protein quantification via PierceTM BCA Protein Assay Kit (Thermo: 23225) was carried out according to manufacturer’s protocol.
Protein Digestion. Samples were diluted 1:2 with 50 mM TRIS pH 8.5 to reach a final concentration of 4 M Urea. Lys-C (Promega: VA1170) was added at a 1:100 enzyme/substrate ratio. Samples were agitated at 550 rpm and 37 °C for 3 h. Samples were further diluted with 50 mM TRIS pH 8.5 to a final concentration of 1 M Urea and Trypsin (Promega: V5280) was added at a 1:100 enzyme/substrate ratio. Samples were agitated overnight at 550 rpm and 37 °C. The digestion was stopped the following day via addition of TFA to a final concentration […]
Solid Phase Extraction via C18 Cartridges. Sep-Pak C18 Cartridges (Waters: WAT054955) were used for solid phase extraction of digested peptides. For preconditioning of C18 cartridges, 1 mL of methanol was added to each column followed by 1 mL of solution B (0.1% formic acid, 80% acetonitrile) and 1 mL of solution A (0.1% formic acid, ddH2O) twice. Samples […]
were loaded to their respective columns and once samples had passed, columns were washed twice with solution A to remove unwanted components from the loading step. Elution of samples was carried out via introduction of 40% and 60% acetonitrile steps. Samples were dried and snap frozen in liquid nitrogen.
TMT-Labeling. Desalted peptides were dried and resuspended in TMT-labeling buffer (200 mM EPPS pH 8.2, 20% acetonitrile). 10 μg of peptides per condition were subjected to TMT labeling with 1:2.5 peptide TMT ratio (w/w) for 1 h at room temperature. The labeling reaction was quenched by addition of hydroxylamine to a final concentration of 0.5% and incubation at room temperature for 15 minutes. Successful TMT labeling was verified by mixing equimolar ratios of peptides and subjecting the mix to single shot LC-MS/MS analysis. For high pH reversed phase fractionation on a Dionex analytical HPLC, 50 µg of pooled and purified TMT labelled samples were resuspended in 10 mM ammonium-bicarbonate (ABC), 5% acetonitrile, […]
particle size; Phenomenex) using a multistep gradient from 100% solvent A (5% acetonitrile, 10 mM ABC in water) to 60% solvent B (90% acetonitrile, 10 mM ABC in water) over 70 minutes. Eluting peptides were collected every 45 seconds into a total of 96 fractions, which were cross-concatenated into 24 fractions and dried in a vacuum concentrator and resuspended in 3% acetonitrile with 0.1% TFA for LC-MS analysis.
Mass spectrometry data acquisition. Tryptic peptides were analyzed on an Orbitrap Lumos coupled to an easy nLC 1200 (ThermoFisher Scientific) using a 35 cm long, 75 µm ID fused-

[3] = AURKA intact (IC50±sd)/μM, intact cells
[4] = AURKA permeabilized (IC50±sd)/μM, permeabilized cells
[5] = protein TRBV12-3;TRBV12-4, 1 µM, set1.2
[6] = protein UQCRHL;UQCRH, 1µM, set6
[7] = protein hCG_2014768;TMA7, 1µM, set6

SMILES: Cc1ncsc1-c1ccc(CNC(=O)[C@@H]2C[C@H](O)CN2C(=O)[C@@H](NC(=O)CCOCCOCCOCCN2CCN(c3cc(Nc4cc(C5CC5)[nH]n4)nc(Nc4ccc(CC#N)cc4)n3)CC2)C(C)(C)C)cc1 [4-a^neg]
kinase degradation [2]: inactive
log2FC (compound/DMSO) ([2]; protein NUDT4, 1µM, set6): 0.1377
log2FC (compound/DMSO) ([2]; protein TRAV8-2, 1µM, set6): -0.04256
log2FC (compound/DMSO) [2, 6]: 0.1443
log2FC (compound/DMSO) [2, 7]: -0.0883

SMILES: CC(C)(C)OC(=O)NCCCOCCOCCOCCCNC(=O)c1cc(Nc2cc(C3CC3)[nH]n2)nc(Nc2ccc(CC#N)cc2)n1 [5-L]
IC50 [1, 3]: ~19.7 µM
IC50 [1, 4]: ~7.05 µM

SMILES: Cc1ncsc1-c1ccc(CNC(=O)[C@@H]2C[C@H](O)CN2C(=O)[C@@H](NC(=O)CCOCCOCCOCCOCCN2CCN(c3ccc(Nc4ncc(Cl)c(Nc5ccccc5C(N)=O)n4)cc3)CC2)C(C)(C)C)cc1 [6-b^neg]
kinase degradation [2]: inactive
log2FC (compound/DMSO) ([2]; protein NUDT4, 1µM, set6): -0.02087
log2FC (compound/DMSO) ([2]; protein TRAV8-2, 1µM, set6): 0.09325
log2FC (compound/DMSO) [2, 6]: 0.1465
log2FC (compound/DMSO) [2, 7]: -0.2041

SMILES: CCOC(=O)c1cc(Nc2cc(C3CC3)[nH]n2)nc(Nc2ccc(CC#N)cc2)n1 [compound 5]
IC50 [1, 3]: 0.577 ± 0.391 µM
IC50 [1, 4]: 0.507 ± 0.079 µM

The next lines start with results.

IC50 [1, 3]: 1.92 ± 0.07 µM
IC50 [1, 4]: 0.63 ± 0.021 µM
SMILES: CC(C)(C)OC(=O)NCCOCCOCCOCCOCCC(=O)N1CCN(c2cc(Nc3cc(C4CC4)[nH]n3)nc(Nc3ccc(CC#N)cc3)n2)CC1 [4-L]

IC50 [1, 3]: 3.68 ± 0.085 µM
IC50 [1, 4]: 1.34 ± 0.271 µM
SMILES: Cc1ncsc1-c1ccc(CNC(=O)[C@@H]2C[C@@H](O)CN2C(=O)[C@@H](NC(=O)CCOCCOCCOCCN2CCN(c3cc(Nc4cc(C5CC5)[nH]n4)nc(Nc4ccc(CC#N)cc4)n3)CC2)C(C)(C)C)cc1 [4-a]
kinase degradation [2]: more kinases were degraded
AURKA degradation in proteomic experiments [2]: degradation levels close to the set cutoff
log2FC (compound/DMSO) ([2]; protein NUDT4, 1 µM, set1.2): -0.1286
log2FC (compound/DMSO) ([2]; protein PIGBOS1, 1 µM, set1.2): -0.1403
log2FC (compound/DMSO) ([2]; protein TRAV8-2, 1 µM, set1.2): 0.1127
log2FC (compound/DMSO) [2, 5]: 0.03022

IC50 [1, 4]: ~16.9 µM
AURKA intact (IC50±sd)/μM ([1]; intact cells): outside the assay window
SMILES: Cc1ncsc1-c1ccc(CNC(=O)[C@@H]2C[C@@H](O)CN2C(=O)[C@@H](NC(=O)CCOCCOCCNC(=O)c2cc(Nc3cc(C4CC4)[nH]n3)nc(Nc3ccc(CC#N)cc3)n2)C(C)(C)C)cc1 [5-a]
log2FC (compound/DMSO) ([2]; protein NUDT4, 1 µM, set1.2): -0.04256
log2FC (compound/DMSO) ([2]; protein PIGBOS1, 1 µM, set1.2): -0.1976
log2FC (compound/DMSO) ([2]; protein TRAV8-2, 1 µM, set1.2): 0.04739
log2FC (compound/DMSO) [2, 5]: 0.03953

IC50 [1, 3]: ~18.5 µM
IC50 [1, 4]: ~7.78 µM
SMILES: CC(=O)N[C@H](C(=O)N1C[C@H](O)C[C@H]1C(=O)NCc1ccc(-c2scnc2C)cc1OCCOCCOCCOCCNC(=O)c1cc(Nc2cc(C3CC3)[nH]n2)nc(Nc2ccc(CC#N)cc2)n1)C(C)(C)C [5-b]

IC50 [1, 3]: 0.416 ± 0.031 µM
IC50 [1, 4]: 0.254 ± 0.08 µM
SMILES: Cc1ncsc1-c1ccc(CNC(=O)[C@@H]2C[C@@H](O)CN2C(=O)[C@@H](NC(=O)CCOCCOCCOCCOCCN2CCN(c3ccc(Nc4ncc(Cl)c(Nc5ccccc5C(N)=O)n4)cc3)CC2)C(C)(C)C)cc1 [6-b]
kinase degradation [2]: more kinases were degraded
AURKA degradation in proteomic experiments [2]: degradation levels close to the set cutoff
log2FC (compound/DMSO) ([2]; protein NUDT4, 1 µM, set1.2): 0.1389
log2FC (compound/DMSO) ([2]; protein PIGBOS1, 1 µM, set1.2): -0.2513
log2FC (compound/DMSO) ([2]; protein TRAV8-2, 1 µM, set1.2): -0.01025
log2FC (compound/DMSO) [2, 5]: 0.04941

IC50 [1, 3]: 0.372 ± 0.014 µM
IC50 [1, 4]: 0.249 ± 0.011 µM
SMILES: Cc1ncsc1-c1ccc(CNC(=O)[C@@H]2C[C@@H](O)CN2C(=O)[C@@H](NC(=O)CCCCCCN2CCN(c3ccc(Nc4ncc(Cl)c(Nc5ccccc5C(N)=O)n4)cc3)CC2)C(C)(C)C)cc1 [6-d]
log2FC (compound/DMSO) ([2]; protein NUDT4, 1µM, set6): 0.05822
log2FC (compound/DMSO) ([2]; protein TRAV8-2, 1µM, set6): -0.03607
log2FC (compound/DMSO) [2, 6]: -0.2976
log2FC (compound/DMSO) [2, 7]: -0.5377

IC50 [1, 3]: ~2.2 µM
IC50 [1, 4]: 0.861 ± 0.251 µM
SMILES: CC(=O)N[C@H](C(=O)N1C[C@H](O)C[C@H]1C(=O)NCc1ccc(-c2scnc2C)cc1OCCOCCOCCOCCOCCC(=O)N1CCN(c2ccc(Nc3ncc(Cl)c(Nc4ccccc4C(N)=O)n3)cc2)CC1)C(C)(C)C [6-e]
